Test results taken from publication PMC4452912 (Viruses, 2015).

What was measured:
hERG = molecular target: T1, hERG (Homo sapiens, UniProt Q12809); assay: Functional hERG assay, automated whole-cell patch clamp in CHO cells; format: cell-based
T1 construct: expressed in transfected cells; host or cells: CHO

in vitro [1] = format: in vitro ADME; details: human, plasma
CYP2C9 = CYP2C9 (Homo sapiens, UniProt P11712); assay: CYP inhibition in human liver microsomes, CYP2C9; format: in vitro ADME
in vitro [2] = format: cell-based; details: African green monkey
[3] = 10 day repeat dose oral safety study in mice; format: in vivo, Swiss Albino mice; details: male mice
in vitro [4] = format: in vitro ADME; details: rat, microsomes
CYP3A4 = CYP3A4 (Homo sapiens, UniProt P08684); assay: CYP inhibition in human liver microsomes, CYP3A4; format: in vitro ADME
CYP2C19 = CYP2C19 (Homo sapiens, UniProt P33261); assay: CYP inhibition in human liver microsomes, CYP2C19; format: in vitro ADME
CYP1A2 = molecular target: T2, CYP1A2 (Homo sapiens, UniProt P05177); assay: CYP inhibition in human liver microsomes, CYP1A2; format: in vitro ADME
T2 sequence (P05177 1-516): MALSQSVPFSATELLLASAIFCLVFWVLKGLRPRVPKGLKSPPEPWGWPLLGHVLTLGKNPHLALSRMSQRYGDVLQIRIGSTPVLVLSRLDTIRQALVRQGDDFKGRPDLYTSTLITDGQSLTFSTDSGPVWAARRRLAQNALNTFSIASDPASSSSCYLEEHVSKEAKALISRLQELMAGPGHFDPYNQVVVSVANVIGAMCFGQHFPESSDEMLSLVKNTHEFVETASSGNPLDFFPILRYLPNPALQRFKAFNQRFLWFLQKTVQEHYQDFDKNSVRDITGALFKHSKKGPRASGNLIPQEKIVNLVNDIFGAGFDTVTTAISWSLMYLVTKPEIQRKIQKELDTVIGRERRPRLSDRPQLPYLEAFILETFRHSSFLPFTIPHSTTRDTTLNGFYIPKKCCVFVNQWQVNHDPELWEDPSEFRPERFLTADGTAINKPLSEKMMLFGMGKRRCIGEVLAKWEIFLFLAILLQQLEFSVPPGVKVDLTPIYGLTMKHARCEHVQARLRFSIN

[5] = test system: Venezuelan Equine Encephalitis virus (VEEV, TC-83 vaccine strain); assay: microbe, parasite or virus in culture; format: cell-based; details: Vero, 72 h, read-out: IC50 VEEV
ER α-glucosidase I = molecular target: T3, ER α-glucosidase I (Rattus norvegicus, UniProt O88941); assay: Purified enzyme inhibition, ER α-glucosidase I; format: biochemical
T3 sequence (O88941 1-834): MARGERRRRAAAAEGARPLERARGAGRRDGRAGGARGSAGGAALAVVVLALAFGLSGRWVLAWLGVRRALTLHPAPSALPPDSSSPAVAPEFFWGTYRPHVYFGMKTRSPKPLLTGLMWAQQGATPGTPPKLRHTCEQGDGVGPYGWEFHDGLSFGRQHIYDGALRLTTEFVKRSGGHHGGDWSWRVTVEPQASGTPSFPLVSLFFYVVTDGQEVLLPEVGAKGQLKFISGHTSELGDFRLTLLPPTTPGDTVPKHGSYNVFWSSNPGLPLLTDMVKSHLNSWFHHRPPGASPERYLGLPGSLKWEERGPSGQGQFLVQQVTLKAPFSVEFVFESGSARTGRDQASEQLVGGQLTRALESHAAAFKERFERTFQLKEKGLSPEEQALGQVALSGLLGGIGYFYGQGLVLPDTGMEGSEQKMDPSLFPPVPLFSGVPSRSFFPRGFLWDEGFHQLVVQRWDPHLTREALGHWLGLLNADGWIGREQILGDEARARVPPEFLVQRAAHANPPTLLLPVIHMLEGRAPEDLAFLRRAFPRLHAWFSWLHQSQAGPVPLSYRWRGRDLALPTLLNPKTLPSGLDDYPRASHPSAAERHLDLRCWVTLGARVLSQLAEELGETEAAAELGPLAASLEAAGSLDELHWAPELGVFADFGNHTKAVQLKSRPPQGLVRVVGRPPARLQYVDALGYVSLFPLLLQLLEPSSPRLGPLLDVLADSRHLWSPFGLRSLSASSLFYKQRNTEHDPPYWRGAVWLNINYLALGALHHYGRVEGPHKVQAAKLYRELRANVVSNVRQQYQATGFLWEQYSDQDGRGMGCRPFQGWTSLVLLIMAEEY

in vitro [6] = format: in vitro ADME; details: dog, plasma
[7] = 100 mg/kg PO TID 10 days, vs control

T1 sequence (Q12809 whole entry): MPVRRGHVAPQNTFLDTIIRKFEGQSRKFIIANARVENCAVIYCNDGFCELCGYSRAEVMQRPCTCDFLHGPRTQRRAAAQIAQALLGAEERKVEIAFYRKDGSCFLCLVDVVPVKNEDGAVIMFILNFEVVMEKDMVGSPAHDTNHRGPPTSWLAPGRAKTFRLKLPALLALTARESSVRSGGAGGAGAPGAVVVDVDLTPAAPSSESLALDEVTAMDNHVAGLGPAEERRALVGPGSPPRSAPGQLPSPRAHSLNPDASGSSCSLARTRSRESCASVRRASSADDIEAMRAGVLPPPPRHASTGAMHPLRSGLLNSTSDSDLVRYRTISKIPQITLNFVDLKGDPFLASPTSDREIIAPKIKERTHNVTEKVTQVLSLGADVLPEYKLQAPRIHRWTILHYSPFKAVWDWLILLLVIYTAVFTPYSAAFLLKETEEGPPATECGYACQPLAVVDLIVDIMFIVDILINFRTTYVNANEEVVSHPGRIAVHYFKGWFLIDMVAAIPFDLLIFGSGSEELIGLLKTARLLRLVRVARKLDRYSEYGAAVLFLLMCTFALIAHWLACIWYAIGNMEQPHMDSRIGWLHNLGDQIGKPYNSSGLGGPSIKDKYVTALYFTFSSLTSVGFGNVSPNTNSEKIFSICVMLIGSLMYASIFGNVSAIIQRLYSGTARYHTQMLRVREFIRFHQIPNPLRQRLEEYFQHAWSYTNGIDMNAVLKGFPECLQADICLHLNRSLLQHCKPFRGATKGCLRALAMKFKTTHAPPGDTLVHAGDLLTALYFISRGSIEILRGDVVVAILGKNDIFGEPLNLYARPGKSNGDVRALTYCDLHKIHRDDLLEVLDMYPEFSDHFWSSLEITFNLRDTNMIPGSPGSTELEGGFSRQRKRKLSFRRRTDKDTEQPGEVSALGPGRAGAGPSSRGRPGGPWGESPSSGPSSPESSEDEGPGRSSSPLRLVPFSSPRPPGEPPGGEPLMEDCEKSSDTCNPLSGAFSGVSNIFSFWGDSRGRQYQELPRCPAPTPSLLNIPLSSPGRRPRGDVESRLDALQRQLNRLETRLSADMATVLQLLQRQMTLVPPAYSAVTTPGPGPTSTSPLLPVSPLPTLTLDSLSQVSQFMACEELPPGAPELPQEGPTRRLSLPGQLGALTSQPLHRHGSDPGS
Sequence of CYP2C9 (P11712 whole entry): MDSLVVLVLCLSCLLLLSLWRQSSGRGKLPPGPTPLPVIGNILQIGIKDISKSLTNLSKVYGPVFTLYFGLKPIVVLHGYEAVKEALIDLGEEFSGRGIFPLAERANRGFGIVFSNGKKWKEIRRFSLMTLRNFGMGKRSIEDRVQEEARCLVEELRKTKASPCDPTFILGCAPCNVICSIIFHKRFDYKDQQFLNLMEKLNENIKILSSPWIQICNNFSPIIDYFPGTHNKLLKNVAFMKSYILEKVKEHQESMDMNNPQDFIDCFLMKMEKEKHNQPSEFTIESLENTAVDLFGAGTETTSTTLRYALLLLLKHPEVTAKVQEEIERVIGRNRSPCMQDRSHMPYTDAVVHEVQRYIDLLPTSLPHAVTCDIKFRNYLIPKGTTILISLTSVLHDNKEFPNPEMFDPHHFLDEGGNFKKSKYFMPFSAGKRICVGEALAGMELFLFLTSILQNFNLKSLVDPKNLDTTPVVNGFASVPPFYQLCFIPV
Sequence of CYP3A4 (P08684 whole entry): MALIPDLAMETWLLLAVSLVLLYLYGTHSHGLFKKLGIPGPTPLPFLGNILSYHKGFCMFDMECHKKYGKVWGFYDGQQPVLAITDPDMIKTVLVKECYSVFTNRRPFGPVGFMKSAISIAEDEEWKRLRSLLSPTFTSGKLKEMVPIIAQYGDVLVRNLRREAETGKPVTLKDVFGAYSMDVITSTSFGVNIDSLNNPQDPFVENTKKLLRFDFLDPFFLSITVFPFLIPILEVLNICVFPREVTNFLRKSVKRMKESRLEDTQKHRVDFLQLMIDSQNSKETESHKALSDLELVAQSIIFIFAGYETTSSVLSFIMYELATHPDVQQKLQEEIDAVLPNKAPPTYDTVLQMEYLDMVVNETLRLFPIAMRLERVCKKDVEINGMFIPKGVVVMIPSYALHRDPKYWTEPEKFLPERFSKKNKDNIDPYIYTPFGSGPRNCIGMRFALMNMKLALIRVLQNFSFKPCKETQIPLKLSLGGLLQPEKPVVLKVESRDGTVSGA
Sequence of CYP2C19 (P33261 whole entry): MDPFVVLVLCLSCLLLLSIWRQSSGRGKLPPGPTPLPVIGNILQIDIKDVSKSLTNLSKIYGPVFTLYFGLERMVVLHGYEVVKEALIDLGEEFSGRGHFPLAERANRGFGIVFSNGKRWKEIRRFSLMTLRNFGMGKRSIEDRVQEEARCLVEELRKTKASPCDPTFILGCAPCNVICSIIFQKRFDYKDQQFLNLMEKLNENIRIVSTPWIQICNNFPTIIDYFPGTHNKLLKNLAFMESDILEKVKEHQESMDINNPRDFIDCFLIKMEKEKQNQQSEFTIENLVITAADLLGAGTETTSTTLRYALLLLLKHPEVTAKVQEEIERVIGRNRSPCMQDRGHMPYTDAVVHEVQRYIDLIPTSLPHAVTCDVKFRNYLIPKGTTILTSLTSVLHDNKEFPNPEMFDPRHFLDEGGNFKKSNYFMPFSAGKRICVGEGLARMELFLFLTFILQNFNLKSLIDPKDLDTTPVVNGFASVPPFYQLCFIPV

Which inhibition at 30 µM (hERG; human, CHO cells stably transfected with hERG, 30 μM, read-out: inhibition of hERG current) does the source give for `OC[C@@H]1[C@@H](O)[C@H](O)[C@@H](O)CN1CCCCCCCCC1CCCO1` (some centres unmarked) [UV-12] here?
The inhibition at 30 µM was 18.2%.

What about the inhibition at 100 µM (hERG; human, CHO cells stably transfected with hERG, 100 μM, read-out: inhibition of hERG current) of the same compound?
Its inhibition at 100 µM is 4.6%.

And the inhibition at 300 µM (hERG; human, CHO cells stably transfected with hERG, 300 μM, read-out: inhibition of hERG current)?
The inhibition at 300 µM was 19.1%.

And the IC50 (hERG; patch clamp, CHO-hERG, read-out: hERG Inhibition)?
Its IC50 is greater than 300 µM.

What about the fraction unbound at 6 h, 10 μM (in vitro [1]) of the same compound?
The fraction unbound at 6 h, 10 μM was 0.32.

What about the IC50 (CYP2C9) of the same compound?
Its IC50 is greater than 100 µM.

And the CC50 at 5 days (in vitro [2])?
Its CC50 at 5 days is greater than 500 µM.

What about the “average weight lost at end of treatment” value ([3]; 100 mg/kg PO TID 10 days) of the same compound?
Its value is 1.72 g.

And the “thymus finding at necropsy/histopathology” value ([3]; 100 mg/kg PO TID 10 days, associated with decreased thymus weight)?
Its value is “lymphoid depletion”.

What about the “average weight lost at end of treatment” value ([3]; 100 mg/kg PO TID 10 days, not statistically significant) of the same compound?
Its value is 4.53%.

And the “decreased ALP” value [3, 7]?
The value was 45%.

And the decreased glucose [3, 7]?
The decreased glucose was 29%.

What about the “increased AST” value [3, 7] of the same compound?
Its value is 76%.

And the “mortality, general health, body weights, food consumption” value ([3]; 100 mg/kg PO three times daily, 10 days)?
Its value is “neither mortality nor any noteworthy effects”.

What about the “Liver microsome metabolic stability CLintr” value (in vitro [4]) of the same compound?
Its value is less than 0.6 mL/min/g liver.

And the half-life at 0.5 µM (in vitro [4])?
The half-life at 0.5 µM was greater than 30 min.

What about the “parent drug remained after 30 min” value (in vitro [4]; 0.5 h, 0.5 µM) of the same compound?
The value was 100%.

And the IC50 (CYP3A4)?
The IC50 was greater than 100 µM.

And the IC50 (CYP2C19)?
The IC50 was greater than 100 µM.

What about the IC50 (CYP1A2) of the same compound?
Its IC50 is greater than 100 µM.

And the IC50 [5]?
The IC50 was 69.4 µM.

What about the IC50 (ER α-glucosidase I) of the same compound?
Its IC50 is 0.14 ± 0.1 µM.

What about the fraction unbound at 6 h, 10 μM (in vitro [6]) of the same compound?
Its fraction unbound at 6 h, 10 μM is 0.28.
